Earlier results in patent US12364698B2 (Janssen Pharmaceutica NV, priority 2015, dated 2025).

Conditions: at a pH of about 7

C=CC(=O)N1CCC[C@@H](n2nc(-c3ccc(Oc4ccccc4)cc3)c3c(N)ncnc32)C1 [Ibrutinib, 1-[(3R)-3-[4-amino-3-(4-phenoxyphenyl)-1H-pyrazolo[3,4 d]pyrimidin-1-yl]-1-piperidinyl]-2-propen-1-one]
partition coefficient: about 4
